The text below walks through data of patent US10744233B2, “Crystallization inhibitor compositions for implantable urological devices” (Innovative Surface Technologies, Inc., priority 2016, dated 2020).

A short description of series [1]: Encrustation assay in artificial urine without bacteria. Conditions: two separate experiments (Table 3). The method, then:
Artificial urine solutions contained either:
The coatings were analyzed for encrustation.
In addition, both the Wet 1 and Dry POC coatings were analyzed for encrustation using the same procedure described previously.

The nature of series [2]: Osteopontin elution assay (ELISA). In kind it is physicochemical. Conditions: 1X PBS, 37° C. The method, then:
Osteopontin Elution Assay
To determine the amount of osteopontin released, coated Parylene™ coated discs were placed in 2 mL of 1×PBS for up to 30 days. The buffer was exchanged at approximately 30 minutes, 1 hour, 1 day, 5 days, 10 days, 15 days, and 30 days. Eluted samples were refrigerated until assaying. Osteopontin was quantified using an Osteopontin ELISA kit (R &D Systems, Mpls, MN) following the kit's instructions.
Sample discs coated with either osteopontin loaded PLGA coatings or empty PLGA coatings were placed in 1×PBS for elution over 30 days at 37° C., with the elution buffer exchanged at days 1, 5, 10, 15, and 30.
Total release per disc was 0.3 ng osteopontin released over 30 days (6-mg PLGA coating/3 ng osteopontin loading per disc).
On the technique in general: ELISA stands for enzyme-linked immunosorbent assay.

Turning to `O=C(O)CC(O)(CC(=O)O)C(=O)O` [citric acid], in series [1], the “Reduction of encrustation compared to control empty PLGA” value is 26-48% and the “Reduction of encrustation compared to uncoated” value is “up to 66%”.

Turning to “osteopontin: human osteopontin (R&D Systems), sialoprotein; in b151 it is released from the osteopontin-loaded PLGA coating”, the Osteopontin release period entry in series [2] (30 days) is “released over the entire 30-day period”. The “Total osteopontin release per disc” value in series [2] (over 30 days, 6-mg PLGA coating/3 ng osteopontin loading per disc) came out at 0.3 ng.
